This note sets out measurements from patent publication US6579696B1, “Polymyxin B conjugates” (priority 1992, dated 2003).

≈ marks a conversion by molar mass, not a printed value. Like-named read-outs stand apart in the source and are kept apart here. Bridge positions count the residues as written; N and C are the ends. Square brackets hold non-standard residues; d marks the D form. Peptide text beside a SMILES is read from it. * marks the point of attachment. Fluorescein(5-Mal) = O=C1OC2(c3ccc(O)cc3Oc3cc(O)ccc32)c2ccc(N3C(=O)CC(*)C3=O)cc21; Ileψ(thiazoline)Cys = CC[C@H](C)[C@H](N)C1=N[C@H](C(=O)*)CS1; Succinimide(1-Et,3-yl) = CCN1C(=O)CC(*)C1=O; dOrn = NCCC[C@@H](N)C(=O)O A value given as a limit tells only on which side of the number the result lay.

One test addresses type I pili (Escherichia coli, UniProt P08191).
The test system of a further test is S. aureus. Nature of the test: MIC testing against S. aureus. Type of test: cell-based, Staph. aureus. The following applies: for activity against S. aureus (in words): controls at concentrations used in the derivatization. The procedure:
1.5 ml fractions were collected. The fractions in the void volume were pooled and sterile filtered. The activity of the conjugate was determined by standard MIC testing against S. aureus.

Test [1] relates to Staphylococcus epidermidis. Nature of the test: MIC and MBC. Type of test: cell-based.
Test [2] relates to J5 bacteria phagocytosed by J774A.1 mouse macrophage cell line. The test is classed as cell-based.
In test [3] the test system is E. coli H16.
Test [4] concerns E. coli H16. Type of test: cell-based. The following applies: for BDA: Table 42.
Another test has as its system Salmonella 34576. To be noted: Table 43.
A further test relates to E. coli. Kind of test: MIC assays, summary of modified PMB's. The following applies: relative to PMB.
The mark [5] stands for this setting: concentration expressed as absorbance at 280 nm.
Setting [6] is: Table 40, first number of the cell.

Chain of type I pili (P08191 22-300): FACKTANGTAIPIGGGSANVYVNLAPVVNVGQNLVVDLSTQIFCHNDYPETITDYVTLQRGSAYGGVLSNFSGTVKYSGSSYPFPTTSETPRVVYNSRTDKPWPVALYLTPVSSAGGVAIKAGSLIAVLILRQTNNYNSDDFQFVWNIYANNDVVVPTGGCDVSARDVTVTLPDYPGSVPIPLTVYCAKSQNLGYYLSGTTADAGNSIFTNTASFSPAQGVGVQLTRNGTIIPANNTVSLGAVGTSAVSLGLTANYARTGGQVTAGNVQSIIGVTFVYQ
Chain of type I pili (P08190 24-167 partner): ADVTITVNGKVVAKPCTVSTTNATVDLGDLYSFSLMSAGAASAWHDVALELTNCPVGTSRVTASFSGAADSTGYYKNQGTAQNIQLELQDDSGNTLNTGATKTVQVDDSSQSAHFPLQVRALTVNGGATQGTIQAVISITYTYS
Chain of type I pili (P08189 23-176 partner limits assumed): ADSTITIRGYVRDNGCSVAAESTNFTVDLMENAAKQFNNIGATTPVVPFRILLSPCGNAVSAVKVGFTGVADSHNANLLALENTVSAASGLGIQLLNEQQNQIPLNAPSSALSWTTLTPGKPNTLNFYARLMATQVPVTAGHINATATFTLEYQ
Chain of type I pili (P04128 24-182 partner): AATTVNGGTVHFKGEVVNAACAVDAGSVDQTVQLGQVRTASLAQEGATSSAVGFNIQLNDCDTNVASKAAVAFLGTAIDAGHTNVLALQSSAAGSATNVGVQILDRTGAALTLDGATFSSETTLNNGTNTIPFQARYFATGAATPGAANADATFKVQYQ

For `N[C@@H](Cc1ccccc1)C(=O)Nc1ccc(O[C@H]2O[C@H](CO)[C@@H](O)[C@H](O)[C@@H]2O)cc1` [4-(N-phenylalanyl)-aminophenyl-α-D-mannopyranoside], the “activity relative to methyl α-mannopyranoside” value at type I pili is recorded as “approximately 1000 fold”.

Molecule `CC(=O)OCC1=C(C(=O)O)N2C(=O)[C@@H](N)[C@H]2SC1` [7-aminocephalosporanic acid] showed an MIC in the test on S. aureus (setting [5]) of 3.7 A280.

In turn, `CC[C@H](C)[C@H](N)C1=N[C@H](C(=O)N[C@@H](CC(C)C)C(=O)N[C@H](CCC(=O)O)C(=O)N[C@H](C(=O)N[C@H]2CCCCNC(=O)[C@H](CC(N)=O)NC(=O)[C@@H](CC(=O)O)NC(=O)[C@H](Cc3cnc[nH]3)NC(=O)[C@@H](Cc3ccccc3)NC(=O)[C@H]([C@@H](C)CC)NC(=O)[C@@H](CCCN)NC2=O)[C@@H](C)CC)CS1` [Bacitracin] ({Ileψ(thiazoline)Cys}-L[dE]IK[dOrn]I[dF]H[dD]N; lactam 4-C) displayed an MIC in [1] (Table 25) of 25 µg/mL (≈ 17.6 µM). In addition, in test [1] (Table 25, read-out: MBC), the MBC came out at 50 µg/mL (≈ 35.1 µM).

In the case of `CC(C)C[C@H](NC(=O)[C@H](C)N)C(=O)N[C@@H](Cc1ccc(O)cc1)C(=O)N[C@@H](CCCCN)C(=O)N[C@@H](CCCCN)C(=O)N[C@@H](CC(C)C)C(=O)N[C@@H](CC(C)C)C(=O)N[C@@H](CCCCN)C(=O)N[C@@H](CCCCN)C(=O)N[C@@H](CC(C)C)C(=O)N[C@@H](CC(C)C)C(=O)N[C@@H](CCCCN)C(=O)N[C@@H](CO)C(=O)N[C@@H](C)C(=O)N[C@@H](CCCCN)C(=O)N[C@@H](CCCCN)C(=O)N[C@@H](CC(C)C)C(=O)NCC(=O)N[C@@H](CSC1CC(=O)N(c2ccc3c(c2)C(=O)OC32c3ccc(O)cc3Oc3cc(O)ccc32)C1=O)C(N)=O` (stereo partly drawn) [C19G-Mal-FL] (H-ALYKKLLKKLLKSAKKLGC(Fluorescein(5-Mal))-NH2; N-terminus assumed), the “% Macrophage with phagocytosed bacteria” value in test [2] (Table 61 (repeat assay), 1×10^8 J5 bacteria opsonized, from 100 macrophage examined, conjugates 0.5 ug/ml, anti-avidin 1/400, anti-fluorescein antibody 14 ug/ml) worked out at 8%. Besides, in test [2] (with anti-fluorescein antibody), the “enhancement of phagocytosis (in words)” value was “prevents the C19g-Mal-FL conjugate from enhancing bacterial phagocytosis”. The MIC against E. coli H16 [3] was determined as 10 µg/mL (≈ 3.89 µM).

In the test on E. coli H16 [4], `CCN1C(=O)CC(SC[C@H](NC(=O)CNC(=O)[C@H](CC(C)C)NC(=O)[C@H](CCCCN)NC(=O)[C@H](CCCCN)NC(=O)[C@H](C)NC(=O)[C@H](CO)NC(=O)[C@H](CCCCN)NC(=O)[C@H](CC(C)C)NC(=O)[C@H](CC(C)C)NC(=O)[C@H](CCCCN)NC(=O)[C@H](CCCCN)NC(=O)[C@H](CC(C)C)NC(=O)[C@H](CC(C)C)NC(=O)[C@H](CCCCN)NC(=O)[C@H](CCCCN)NC(=O)[C@H](Cc2ccc(O)cc2)NC(=O)[C@H](CC(C)C)NC(=O)[C@H](C)N)C(N)=O)C1=O` (stereo partly drawn) [C19G-NEM] (H-ALYKKLLKKLLKSAKKLGC(Succinimide(1-Et,3-yl))-NH2; N-terminus assumed) yielded a BDA of 2.5 to 5 µg/mL. For the same molecule, the MIC was determined as 6 µg/mL (≈ 2.64 µM) in the test with E. coli 0111:B4 (0111:B4), 10 µg/mL (≈ 4.4 µM) in the test with E. coli H16 [3] and 6 µg/mL (≈ 2.64 µM) with Salmonella 34576.

For `CC(C)C[C@H](NC(=O)[C@H](Cc1ccccc1)NC(=O)[C@H](CCCNC(=N)N)NC(=O)[C@H](CCCCN)NC(=O)[C@H](CCC(N)=O)NC(=O)[C@H](C)NC(=O)[C@H](CCCCN)NC(=O)[C@H](Cc1c[nH]c2ccccc12)NC(=O)[C@H](CCCCN)NC(=O)[C@@H](N)CS)C(=O)N[C@@H](CCCCN)C(=O)O` [C90-99, cys-lys-trp-lys-ala-gln-lys-arg-phe-leu-lys, reference compound], the MIC against E. coli 0111:B4 (0111:B4) and with E. coli HB101 (HB101) was >75 µg/mL throughout.

Consider `O=C(Nc1ccc(O[C@H]2O[C@H](CO)[C@@H](O)[C@H](O)[C@@H]2O)cc1)c1ccccc1` [N-benzoyl derivative, 4-Benzamidophenyl-α-D-mannopyranoside], for which, at type I pili, the “activity relative to methyl α-mannopyranoside” value amounted to 1000 fold.

`O=C(ON1C(=O)CC(S(=O)(=O)O)C1=O)c1cccc(N2C(=O)C=CC2=O)c1` (stereo not drawn) [Sulfo-MBS, m-Maleimidobenzoyl-N-hydroxysulfosuccinimide ester]: the “activity against S. aureus (in words)” value in the test with S. aureus was “inactive”.

As for `OCCS` [beta-mercaptoethanol], the “activity against S. aureus (in words)” value in the test with S. aureus was “inactive”.

`NCCO` [ethanolamine]: the “activity against S. aureus (in words)” value in the test with S. aureus was “inactive”.

For `CC1(C)S[C@@H]2[C@H](N)C(=O)N2[C@H]1C(=O)O` [native aminopenicillanic acid, 6-aminopenicillanic acid], the MIC in the test on S. aureus (Staphylococcus aureus, read-out: MIC) was 250 µg/mL (≈ 1160 µM).

With `CC1(C)S[C@@H]2[C@H](NC(=O)[C@H](N)c3ccc(O)cc3)C(=O)N2[C@H]1C(=O)O` [native amoxicillin, amoxicillin], the MIC in the test with S. aureus turned out to be 250 µg/mL (≈ 684 µM).

`CC1=C(C(=O)O)N2C(=O)[C@@H](NC(=O)[C@H](N)c3ccc(O)cc3)[C@H]2SC1` [native cefadroxil, cefadroxil] yielded an MIC in the test on S. aureus (setting [5]) of 0.028 A280.

Consider Cysteinyl-PMB [PMB-Cys], for which the MIC in the test on E. coli 0111:B4 (setting [6]) was 0.7 µg/mL; against E. coli 0111:B4 (Table 41), 0.8 to 1 µg/mL. The “antibiotic activity (in words)” value in the test with E. coli is given as “Active”.

As for Imminothiolated PMB [PMB-Traut's], the “loss of anti-bacterial activity relative to PMB” value in the test on E. coli HB101 was 40-80 fold. In the test on E. coli HB101 (Table 41), the MIC was found to be 4 µg/mL.

The molecule “Lysyl S-Succinamidyl (Fluorescein) PMB [PMB-Lys-FL]” had an MIC with E. coli 0111:B4 (setting [6]) of 1 µg/mL.

Consider Lysyl-PMB [PMB-Lys], for which the MIC against E. coli 0111:B4 (setting [6]) was 2.0 µg/mL; against E. coli 0111:B4 (Table 41), 2 µg/mL. Moreover, in the test with E. coli, the “antibiotic activity (in words)” value is given as “Active”.

For Monoalanyl PMB [PMB-Ala], the MIC against E. coli 0111:B4 (setting [6]) was 0.7 µg/mL; in the test on E. coli 0111:B4 (Table 41), 0.8 to 2 µg/mL. The “antibiotic activity (in words)” value with E. coli was “Active”.

Consider PMB-NHCOCH2SCOCH3 [PMB-SATA], for which the “loss of anti-bacterial activity relative to PMB” value in the test with E. coli HB101 is reported as “about 10 fold”. Besides, the MIC against E. coli HB101 (Table 41) stood at 0.6 µg/mL. For the same molecule, the “antibiotic activity (in words)” value with E. coli is “Less Active”.

For “PMB-S-Mercaptosuccinyl-succinimidyl-fluorescein [PMB-SAMSA-Mal-FL]”, the values for the MIC in the test on E. coli 0111:B4 (setting [6]) and against E. coli 0111:B4 (Table 44) were 10 µg/mL and 4 to 20 µg/mL, respectively.

As to Polymyxin B-fluoroscein [PMB-NHS-FL], in the test on E. coli HB101, the “loss of anti-bacterial activity relative to PMB” value was 10-20 fold. Moreover, in the test with E. coli HB101 (Table 44), the MIC fell in the range of 0.8 to 1 µg/mL.

Consider “S-(Acetomidomethyl)-t-butoxycarbonylcysteinyl PMB [PMB-Boc-Cys (ACM)]”, for which the MIC in the test with E. coli 0111:B4 (setting [6]) came out at 6.0 µg/mL; with E. coli 0111:B4 (Table 41) it was 5 µg/mL.

Regarding “S-(Acetomidomethyl)cysteinyl PMB [PMB-Cys (ACM)]”, the MIC with E. coli 0111:B4 (setting [6]) was 1.2 µg/mL; in the test with E. coli 0111:B4 (Table 41), 5 µg/mL.

Regarding “S-Acetylmercaptosuccinyl PMB [PMB-SAMSA]”, the MIC against E. coli 0111:B4 (setting [6]) is 3.1 µg/mL; with E. coli 0111:B4 (Table 41) it was 3 µg/mL; against E. coli HB101 (Table 41) it was 0.5 to 3 µg/mL. Moreover, the “loss of anti-bacterial activity relative to PMB” value in the test on E. coli HB101 is listed as 10-30 fold.

In turn, “S-hydroxyethylthio maleimidomethyl cyclohexane carboxyl-N-cefadroxil ester” yielded an MIC against S. aureus (setting [5]) of 1.6 A280.

As for “S-hydroxyethylthio-maleimidobenzoyl-N-aminocephalosporanic acid ester”, in the test with S. aureus (setting [5]), the MIC worked out at 0.86 A280.

In the case of “ala-leu-tyr-lys-lys-leu-leu-lys-lys-leu-leu-lys-ser-ala-lys-lys-leu-gly-cys-amide [C19G]”, in the test on E. coli H16 [4], the “lower activity than C18G” value is on record as “about 5 fold” and the BDA fell in the range of 25 to 50 µg/mL.

In the case of “t-butoxycarbonyl-alanine-polymyxin B [PMB-BOC-Ala]”, the MIC in the test on E. coli 0111:B4 (Table 41) was determined as 2 µg/mL.

For “α,ε-di-t-Butoxycarbonyl-lysyl-PMB [α,ε-di-t-butoxycarbonyl lysyl derivative]”, in the test with E. coli, the “antibiotic activity (in words)” value is recorded as “significantly less active”.

“α-Boc-ε{flourescein) thiocarbamoyl}-lysyl PMB [PMB-Boc-Lys-FL]” yielded an MIC with E. coli 0111:B4 (setting [6]) of 12.5 µg/mL.
